According to publication PMC10044245, “Comparative Evaluation of Existing and Rationally Designed Novel Antimicrobial Peptides for Treatment of Skin and Soft Tissue Infections” (Antibiotics, 2023):
≈ marks a conversion by molar mass, not a printed value. Where a SMILES comes first, the peptide text is derived from it.

Tests used:
[1] = tested on: C. acnes; assay: microbe, parasite or virus in culture; format: cell-based, Cutibacterium acnes
Procedure: (§1) Quantification of the antimicrobial resistance against various AMPs was carried out by measuring the bacterial growth in the presence of peptides at serial dilutes in 96 well plates in a microplate (96-well plate) reader Infinite® M200 PRO Multimode Microplate Reader (Tecan, Maennedorf, Switzerland) according to our recent reports. All bacterial strains were incubated at 32 °C for 13–18 h at 200 rpm. Optical density measurements (λ = 550 nm) were taken automatically at 10 min intervals. Antimicrobial resistance activity was quantified as the minimum inhibitory concentration (MIC)—the lowest concentration of a peptide which prevents growth of bacterial cells.

[2] = tested on: primary human dermal fibroblasts; format: cell-based; conditions: 48 h
Text: (§2) The BALB/c 3T3 murine fibroblast cell line was obtained from ATCC (American Type Culture Collection, Manassas, VA, USA). Primary human dermal fibroblasts were isolated by enzymatic digestion from skin biopsies in the Laboratory of Bioanalytical and Biodosimetry Methods, University of Latvia, in accordance with the approval of the Committee of Research Ethics of the Institute of Cardiology and Regenerative Medicine, University of Latvia. Cells were propagated in DMEM medium (Sigma, Irvine, UK), supplemented with 1% penicillin (100 U/mL)–streptomycin (100 μg/mL), and 10% calf serum (Sigma, St. Louis, MO, USA) for Balb/c 3T3 cell line and fetal bovine serum (Sigma, St. Louis, MO, USA) for primary dermal fibroblasts. All cultivations were performed in a humidified 5% CO2 atmosphere at 37 °C.
(§3) The cytotoxicity of the peptides was tested in the BALB/c3T3 cell line and primary dermal fibroblasts by the neutral red (NR) uptake assay. Cells were seeded in 96-well plates at a density of 5 × 10^3 cells per well. After 24 h of incubation, peptides in a concentration range of 3.9 to 500 μg/mL were added. Dilutions were made in a cell cultivation medium. Cultivation in the presence of extracts was performed for 48 h. Afterwards, plates were washed with phosphate-buffered saline (PBS) (Sigma, Irvine, UK), and a 25 µg/mL NR solution (Sigma, Irvine, UK) diluted in 5%-fetal-calf-serum-containing-media was added. After 3 h, incubation in a humidified 5% CO2 atmosphere at 37 °C, the plate was washed with PBS, and the NR taken up by viable cells was extracted using desorbing fixative (50% ethanol/1% acetic acid/49% water). Absorbance at 540 nm was measured using a microplate reader Tecan Infinite® 200 PRO (Tecan Group Ltd., Mannedorf, Switzerland). Cytotoxicity was expressed as a concentration-dependent reduction in the uptake of NR, compared to the untreated controls and calculated using the following equation: Cell viability (%)=Abs540nm(treatment)−Abs540nm(background)/Abs540nm(untreated control)−Abs540nm(background)×100%

[3] = tested on: E. faecium; assay: microbe, parasite or virus in culture; format: cell-based, Enterococcus faecium
Procedure: as §1

[4] = tested on: K. pneumonia; assay: microbe, parasite or virus in culture; format: cell-based, Klebsiella pneumoniae
Procedure: as §1

[5] = tested on: BALB/c 3T3 murine fibroblast cell line; assay: Cytotoxicity, neutral red uptake assay; format: cell-based
Text: as §2, §3

[6] = tested on: fresh human blood (red blood cell lysis); assay: Hemolysis assay; format: cell-based; conditions: for hemolysis ratio (HR): red cells of human, 1 h
Procedure: A hemolysis test was performed to assess the hemocompatibility of the peptides. Blood from healthy donors was collected in Monovette vacutainers containing Ethylenediamine tetra-acetic acid (EDTA). Blood was diluted with 0.9% sodium chloride solution supplemented with 10 U/mL heparin (4:5 ratio by volume). Peptides were added to 1.5 mL vials containing fresh 0.49 mL PBS and incubated at 37 °C and 5% CO2 for 30 min, and 10 μL of diluted blood was added to each vial and incubated at 37 °C and 5% CO2 for 1 h. PBS was used as a negative control and deionized water was used as a positive control. After incubation tubes were centrifuged at 3000 rpm for 5 min, the supernatants were collected, and the absorbance was measured at a wavelength of 545 nm in a microplate reader Tecan Infinite® 200 PRO (Tecan Group Ltd., Mannedorf, Switzerland).
The hemolytic ratio (HR) was calculated by the following equation: HR (%)=(Abs(sample)−Abs(negative control))/(Abs (positive control−Abs(negative control))×100%

[7] = tested on: S. aureus; assay: microbe, parasite or virus in culture; format: cell-based, Staphylococcus aureus
Procedure: as §1

[8] = tested on: P. aeruginosa; assay: microbe, parasite or virus in culture; format: cell-based, Pseudomonas aeruginosa
Procedure: as §1

[9] = tested on: E. coli; assay: microbe, parasite or virus in culture; format: cell-based, Escherichia coli
Procedure: as §1

MIC C. acnes [1] [µg/mL] | MIC E. faecium [3] [µg/mL] | MIC K. pneumonia [4] [µg/mL] | MIC S. aureus [7] [µg/mL] | MIC P. aeruginosa [8] [µg/mL] | MIC E. coli [9] [µg/mL] | SMILES | IC50, viability of human primary dermal fibroblasts [2] [µg/mL] | IC50, viability of Balb/c 3T3 cells ([5]; 48 h) [µg/mL] | Therapeutic Index C. acnes [1] | Therapeutic Index E. faecium [3] | Therapeutic Index K. pneumonia [4] | hemolytic activity [6] | Therapeutic Index S. aureus [7] | Therapeutic Index P. aeruginosa [8] | Therapeutic Index E. coli [9] | also measured
2.0 (≈ 1.25 µM) | 16.0 (≈ 10 µM) | 63.0 (≈ 39.4 µM) | 4.0 (≈ 2.5 µM) | 63.0 (≈ 39.4 µM) | 16.0 (≈ 10 µM) | CC(C)C[C@H](NC(=O)[C@H](C)NC(=O)[C@H](CCCCN)NC(=O)[C@H](CC(C)C)NC(=O)[C@H](C)NC(=O)[C@H](CCCCN)NC(=O)[C@H](CC(C)C)NC(=O)[C@H](CC(C)C)NC(=O)[C@H](C)NC(=O)[C@H](CCCCN)NC(=O)[C@H](CC(C)C)NC(=O)[C@H](C)NC(=O)[C@H](CCCCN)NC(=O)[C@H](C)NC(=O)[C@@H](N)Cc1ccccc1)C(=O)O [Oligo10] (H-FAKALKALLKALKAL-OH) | 241.54 | 218.21 |  |  |  |  |  |  |  | concentration with mild hemolytic activity [6]: 16000 ng/mL
2.0 (≈ 0.699 µM) | 16.0 (≈ 5.6 µM) | 4.0 (≈ 1.4 µM) | 8.0 (≈ 2.8 µM) | 8.0 (≈ 2.8 µM) | 8.0 (≈ 2.8 µM) | CC[C@H](C)[C@H](NC(=O)[C@H](Cc1ccccc1)NC(=O)[C@H](CCCCN)NC(=O)[C@H](CCCCN)NC(=O)[C@H](Cc1ccccc1)NC(=O)[C@H](CCCCN)NC(=O)[C@H](CCCCN)NC(=O)[C@H](C)NC(=O)[C@H](Cc1ccccc1)NC(=O)[C@H](CCCCN)NC(=O)[C@H](CCCCN)NC(=O)[C@@H](NC(=O)[C@@H](N)Cc1ccccc1)[C@@H](C)CC)C(=O)N[C@@H](CCCCN)C(=O)N[C@@H](CCCCN)C(=O)N[C@@H](Cc1ccccc1)C(=O)N[C@@H](C)C(=O)N[C@@H](CCCCN)C(=O)N[C@@H](Cc1ccccc1)C(=O)N[C@@H](C)C(=O)N[C@@H](Cc1ccccc1)C(=O)N[C@@H](C)C(=O)N[C@@H](Cc1ccccc1)C(=O)O [Peptide R1] (H-FIKKFAKKFKKFIKKFAKFAFAF-OH; N-terminus and C-terminus assumed) | 128.07 | 63.84 | 64.04 |  |  |  |  |  |  | decrease of cell viability ([5]; Balb/c 3T3, at 15.63 μg/mL and above): more than 62%
0.5 (≈ 0.182 µM) | 4.0 (≈ 1.46 µM) | 8.0 (≈ 2.91 µM) | 4.0 (≈ 1.46 µM) | 2.0 (≈ 0.729 µM) |  | CC[C@H](C)[C@H](NC(=O)[C@H](CCCCN)NC(=O)[C@@H](N)CCCCN)C(=O)N[C@@H](C)C(=O)N[C@@H](CCCCN)C(=O)N[C@@H](CCCCN)C(=O)N[C@@H](Cc1ccccc1)C(=O)N[C@@H](Cc1c[nH]c2ccccc12)C(=O)N[C@@H](CCCCN)C(=O)N[C@@H](CCCCN)C(=O)N[C@@H](Cc1ccccc1)C(=O)N[C@@H](Cc1c[nH]c2ccccc12)C(=O)N[C@@H](CCCCN)C(=O)N[C@@H](Cc1ccccc1)C(=O)N[C@@H](Cc1c[nH]c2ccccc12)C(=O)N[C@@H](CCCCN)C(=O)N[C@H](C(=O)N[C@@H](Cc1ccccc1)C(=O)N[C@@H](CCCCN)C(=O)N[C@@H](CCCCN)C(=O)O)[C@@H](C)CC [Peptide R10] (H-KKIAKKFWKKFWKFWKIFKK-OH) | 38.19 | 86.99 | 76.38 | 9.55 | 4.77 | strong hemolytic activity | 9.55 | 19.1 | 19.1 | 
1.0 (≈ 0.303 µM) | 8.0 (≈ 2.42 µM) | 4.0 (≈ 1.21 µM) | 8.0 (≈ 2.42 µM) | 4.0 (≈ 1.21 µM) | 16.0 (≈ 4.84 µM) | CC[C@H](C)[C@H](NC(=O)[C@H](CCCCN)NC(=O)[C@@H](N)CCCCN)C(=O)N[C@@H](C)C(=O)N[C@@H](CCCCN)C(=O)N[C@@H](CCCCN)C(=O)N[C@@H](Cc1ccccc1)C(=O)N[C@@H](Cc1c[nH]c2ccccc12)C(=O)N[C@@H](CCCCN)C(=O)N[C@@H](CCCCN)C(=O)N[C@@H](Cc1ccccc1)C(=O)N[C@@H](Cc1c[nH]c2ccccc12)C(=O)N[C@@H](CCCCN)C(=O)N[C@@H](Cc1ccccc1)C(=O)N[C@@H](Cc1c[nH]c2ccccc12)C(=O)N1CCC[C@H]1C(=O)N[C@@H](CCCCN)C(=O)N[C@@H](Cc1ccccc1)C(=O)N[C@@H](Cc1c[nH]c2ccccc12)C(=O)N[C@@H](CCCCN)C(=O)N[C@H](C(=O)N[C@@H](Cc1ccccc1)C(=O)N[C@@H](CCCCN)C(=O)N[C@@H](CCCCN)C(=O)O)[C@@H](C)CC [Peptide R14] (H-KKIAKKFWKKFWKFWPKFWKIFKK-OH) |  | 21.07 |  | 4.4 | 8.8 | strong hemolytic activity | 4.4 | 8.8 | 2.2 | hemolysis ratio (HR) [6]: > 5%

SMILES | MIC C. acnes [1] [µg/mL] | MIC E. faecium [3] [µg/mL] | MIC K. pneumonia [4] [µg/mL] | MIC S. aureus [7] [µg/mL] | MIC P. aeruginosa [8] [µg/mL] | MIC E. coli [9] [µg/mL] | IC50, viability of human primary dermal fibroblasts [2] [µg/mL] | IC50, viability of Balb/c 3T3 cells ([5]; 48 h) [µg/mL] | Therapeutic Index C. acnes [1] | Therapeutic Index E. faecium [3] | Therapeutic Index K. pneumonia [4] | hemolytic activity [6] | Therapeutic Index S. aureus [7] | Therapeutic Index P. aeruginosa [8] | Therapeutic Index E. coli [9] | also measured
CC(C)C[C@H](NC(=O)[C@H](CS)NC(=O)[C@H](Cc1ccccc1)NC(=O)[C@@H](N)CCCCN)C(=O)N[C@@H](CCCCN)C(=O)N[C@@H](Cc1ccccc1)C(=O)N[C@@H](CS)C(=O)N[C@@H](Cc1ccccc1)C(=O)N[C@@H](CCCCN)C(=O)NCC(=O)N[C@@H](Cc1ccccc1)C(=O)N[C@@H](CS)C(=O)N[C@@H](Cc1ccccc1)C(=O)N[C@@H](CCCCN)C(=O)N[C@@H](C)C(=O)N[C@@H](CS)C(=O)NCC(=O)N[C@@H](CCCCN)C(=O)O [Peptide R11] (H-KFCLKFCFKGFCFKACGK-OH; N-terminus and C-terminus assumed) | 0.3 (≈ 0.142 µM) |  |  |  |  |  |  |  | 356.7 | 6.7 | 1.7 |  | 6.7 | 1.7 | 0.9 | concentrations not cytotoxic ([5]; Balb/c 3T3, neutral red uptake, 48 h, tested 3.9–500 μg/mL): 3900 ng/mL; hemolysis ratio (HR) ([6]; 32 μg/mL): below 2%; hemolysis ratio (HR) ([6]; 64 μg/mL): 2.85–7.03%
